Assay results: patent US8461305B2, “L-fucose α1→6 specific lectin” (J-Oil Mills, Inc., priority 2008, dated 2013)

Assay: frontal affinity chromatography (FAC), association constant to PA sugar chains without L-fucose
Type: binding
Details: 25 degrees C.
Procedure: The following section will describe a method of calculating an association constant by frontal affinity chromatography (FAC). This method is based on the following principle. […] Then, the elution front end (front) is observed immediately. When there is an affinity with lectin, the elution of the sugar chain is delayed.
The preparation of a lectin column used in the apparatus is performed in the method as described below. 1. Purified lectin is dissolved in 0.1 to 0.2M of NaHCO3 buffer solution (pH 8.3 to 8.5). 2. The lectin is immobilized, via a lectin primary amino group, a carrier such as NHS activated sepharose. 3. Then, the lectin is blocked by Tris buffer solution including primary amine or ethanolamine for example. 4. Lectin-sepharose is suspended in 10 mM Tris buffer, including 0.8% of NaCl (pH 7.4, TBS). Then, lectin immobilized resin is filled in a miniature column (φ2 mm×10 mm, 31.4 μl). 5. The miniature column in which the lectin immobilized resin is filled is protected by a holder and the lectin column is connected to an FAC automatic analysis apparatus (FAC-1, SHIMADZU CORPORATION).
Then, the elution of the PA sugar chain from the column is detected by a fluorescence detector (excitation wavelength/fluorescence wavelength: 310 nm/380 nm).
Based on the detection data, by using the elution front end (Vo) of the sugar chain (PA rhamnose) not interacting with lectin as a reference, the delay (V−Vo) of the elution front end (V) of a sugar chain interacting with lectin is calculated as an interaction strength. Then, based on the following FAC criteria expressions, the association constant (Ka) between the sugar chain and lectin is calculated based on V−Vo and Bt. If the interaction strength (V−Vo value) and the association constant are higher, a higher affinity is caused between lectin and an L-fucose α1→6 sugar chain.
[In the formula, A means substance used for the elution, Ao means the initial concentration of the substance A, B means a immobilized ligand, V means the elution volume, Vo means the elution front end volume of the substance not interacting with the immobilized ligand B at all, Bt means an effective ligand amount, Kd means a dissociation constant (an inverse of the association constant)].
Pyridylaminated (PA) sugar chains shown in FIG. 1 and FIG. 2 were used to frontal affinity chromatography (FAC) analysis. PA sugars were purchased from TAKARA BIO INC., SEIKAGAKU BIOBUSINESS CORPORATION, and Masuda Chemical Industries co., LTD. PA sugar were also obtained by pyridylaminating, by GlycoTAG®(TAKARA BIO INC.), an unlabeled sugar chain or a sugar chain obtained by subjecting a sugar chain to enzyme digestion for example.
Lectin was dissolved in 0.2 M NaHCO3 buffer solution (pH 8.3) including 0.5 M NaCl and coupled to the NHS-activated sepharose (GE Healthcare Bioscience) by following the manufacturer's instructions. Then, lectin immobilized sepharose was suspended in 10 mM Tris buffer (pH 7.4, TBS) including […] and the resultant matter was filled in a miniature column (φ2 mm×10 mm, 31.4 μl).
Frontal affinity chromatography was performed using FAC automatic analysis apparatus (FAC-1, SHIMADZU CORPORATION). In particular, the above-prepared lectin column was inserted to a stainless steel holder and the holder was connected to FAC-1 apparatus. The flow rate and the column temperature were maintained at 0.125 ml/min and 25 degrees C., respectively. After the miniature column was equilibrated by the TBS, an excessive volume (0.5 ml to 4 ml) of a PA sugar chain (3.75 nM or 7.5 nM) was continuously inputted to the column using an automatic sampling apparatus.
The fluorescent strength of the eluate of the PA sugar (excitation wavelength of 310 nm and fluorescence wavelength of 380 nm) was monitored to measure the interaction strength [a difference of the front end eluate to the standard oligosaccharide (PA rhamnose): V−V0]. […]

Substance: Aspergillus oryzae lectin [AOL, reference compound]
- association constant Ka (Sugar chain No. 001): <1000 M⁻¹
- association constant Ka (Sugar chain No. 002): <1000 M⁻¹
- association constant Ka (Sugar chain No. 003): <1000 M⁻¹
- association constant Ka (Sugar chain No. 004): <1000 M⁻¹
- association constant Ka (Sugar chain No. 005): 7300 M⁻¹
- association constant Ka (Sugar chain No. 006): <1000 M⁻¹
- association constant Ka (Sugar chain No. 007): <1000 M⁻¹
- association constant Ka (Sugar chain No. 008): 69000 M⁻¹
- association constant Ka (Sugar chain No. 009): <1000 M⁻¹
- association constant Ka (Sugar chain No. 010): <1000 M⁻¹
- association constant Ka (Sugar chain No. 011): <1000 M⁻¹
- association constant Ka (Sugar chain No. 012): <1000 M⁻¹
- association constant Ka (Sugar chain No. 013): <1000 M⁻¹
- association constant Ka (Sugar chain No. 014): <1000 M⁻¹
- association constant Ka (Sugar chain No. 101): <1000 M⁻¹
- association constant Ka (Sugar chain No. 103): <1000 M⁻¹
- association constant Ka (Sugar chain No. 104): <1000 M⁻¹
- association constant Ka (Sugar chain No. 105): <1000 M⁻¹
- association constant Ka (Sugar chain No. 107): <1000 M⁻¹
- association constant Ka (Sugar chain No. 108): <1000 M⁻¹
- association constant Ka (Sugar chain No. 301): 18000 M⁻¹
- association constant Ka (Sugar chain No. 304): 20000 M⁻¹
- association constant Ka (Sugar chain No. 305): <1000 M⁻¹
- association constant Ka (Sugar chain No. 307): <1000 M⁻¹
- association constant Ka (Sugar chain No. 308): 20000 M⁻¹
- association constant Ka (Sugar chain No. 313): <1000 M⁻¹
- association constant Ka (Sugar chain No. 314): <1000 M⁻¹
- association constant Ka (Sugar chain No. 323): <1000 M⁻¹
- association constant Ka (Sugar chain No. 501): <1000 M⁻¹
- association constant Ka (Sugar chain No. 502): <1000 M⁻¹
- association constant Ka (Sugar chain No. 503): <1000 M⁻¹
- association constant Ka (Sugar chain No. 504): <1000 M⁻¹
- association constant Ka (Sugar chain No. 701): <1000 M⁻¹
- association constant Ka (Sugar chain No. 702): <1000 M⁻¹
- association constant Ka (Sugar chain No. 703): <1000 M⁻¹
- association constant Ka (Sugar chain No. 704): <1000 M⁻¹
- association constant Ka (Sugar chain No. 705): <1000 M⁻¹
- association constant Ka (Sugar chain No. 706): <1000 M⁻¹
- association constant Ka (Sugar chain No. 707): <1000 M⁻¹
- association constant Ka (Sugar chain No. 708): <1000 M⁻¹
- association constant Ka (Sugar chain No. 709): <1000 M⁻¹
- association constant Ka (Sugar chain No. 710): <1000 M⁻¹
- association constant Ka (Sugar chain No. 711): <1000 M⁻¹
- association constant Ka (Sugar chain No. 712): <1000 M⁻¹
- association constant Ka (Sugar chain No. 713): <1000 M⁻¹
- association constant Ka (Sugar chain No. 715): <1000 M⁻¹
- association constant Ka (Sugar chain No. 716): <1000 M⁻¹
- association constant Ka (Sugar chain No. 717): <1000 M⁻¹
- association constant Ka (Sugar chain No. 724): <1000 M⁻¹
- association constant Ka (Sugar chain No. 725): <1000 M⁻¹
- association constant Ka (Sugar chain No. 728 (as listed in Table 7)): <1000 M⁻¹
- association constant Ka (Sugar chain No. 732): <1000 M⁻¹
- association constant Ka (Sugar chain No. 733): <1000 M⁻¹
- association constant Ka (Sugar chain No. 734): <1000 M⁻¹
- association constant Ka (Sugar chain No. 735): <1000 M⁻¹
- association constant Ka (Sugar chain No. 736): <1000 M⁻¹
- association constant Ka (Sugar chain No. 737): <1000 M⁻¹
- association constant Ka (Sugar chain No. 738): <1000 M⁻¹
- association constant Ka (Sugar chain No. 901): <1000 M⁻¹
- association constant Ka (Sugar chain No. 902): <1000 M⁻¹
- association constant Ka (Sugar chain No. 903): <1000 M⁻¹
- association constant Ka (Sugar chain No. 905): <1000 M⁻¹
- association constant Ka (Sugar chain No. 906): <1000 M⁻¹
- association constant Ka (Sugar chain No. 907): <1000 M⁻¹
